Data from PMC9571063 (Molecules, 2022).
Read-outs that look alike come from different tables or passages of the source.

Assays:
[1] = biological target: T1, CHEK2 (Homo sapiens, UniProt O96017); experiment: KINOMEscan; type: binding; conditions: read-out: Percent Control
T1 construct: purchased Eurofins DiscoverX KINOMEscan (scanMAX 468)

[2] = biological target: T2, GRK2 (Homo sapiens, UniProt P25098); experiment: KINOMEscan; type: binding; conditions: read-out: Percent Control
T2 construct: purchased Eurofins DiscoverX KINOMEscan (scanMAX 468)

[3] = biological target: T3, DMPK (Homo sapiens, UniProt Q09013); experiment: KINOMEscan; type: binding; conditions: read-out: Percent Control
T3 construct: purchased Eurofins DiscoverX KINOMEscan (scanMAX 468)
T3 sequence (Q09013 whole entry): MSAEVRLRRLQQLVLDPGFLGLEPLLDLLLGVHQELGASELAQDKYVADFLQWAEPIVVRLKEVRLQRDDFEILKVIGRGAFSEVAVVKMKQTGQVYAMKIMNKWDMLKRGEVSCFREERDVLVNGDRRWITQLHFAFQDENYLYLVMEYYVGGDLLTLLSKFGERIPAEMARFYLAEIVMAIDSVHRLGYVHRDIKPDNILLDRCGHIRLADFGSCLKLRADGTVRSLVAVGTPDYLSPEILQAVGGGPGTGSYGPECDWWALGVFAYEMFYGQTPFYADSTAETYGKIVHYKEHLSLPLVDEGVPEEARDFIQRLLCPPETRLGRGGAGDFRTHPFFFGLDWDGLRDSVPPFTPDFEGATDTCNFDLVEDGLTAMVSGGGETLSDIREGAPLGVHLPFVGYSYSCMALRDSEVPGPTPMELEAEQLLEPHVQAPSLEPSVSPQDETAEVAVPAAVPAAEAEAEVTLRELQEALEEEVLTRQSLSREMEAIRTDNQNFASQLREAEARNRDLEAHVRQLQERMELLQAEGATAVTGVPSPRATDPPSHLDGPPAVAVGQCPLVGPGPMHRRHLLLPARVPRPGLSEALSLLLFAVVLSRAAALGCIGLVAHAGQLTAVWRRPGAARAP

[4] = biological target: T4, EPHA8 (Homo sapiens, UniProt P29322); experiment: KINOMEscan; type: binding; conditions: read-out: Percent Control
T4 construct: purchased Eurofins DiscoverX KINOMEscan (scanMAX 468)

[5] = biological target: T5, ALK (Homo sapiens, UniProt Q9UM73); experiment: KINOMEscan; type: binding; conditions: read-out: Percent Control
T5 construct: purchased Eurofins DiscoverX KINOMEscan (scanMAX 468)

[6] = biological target: T6, ICK (Homo sapiens, UniProt Q9UPZ9); experiment: KINOMEscan; type: binding; conditions: read-out: Percent Control
T6 construct: purchased Eurofins DiscoverX KINOMEscan (scanMAX 468)

[7] = biological target: T7, RAF1 (Homo sapiens, UniProt P04049); experiment: KINOMEscan; type: binding; conditions: read-out: Percent Control
T7 construct: purchased Eurofins DiscoverX KINOMEscan (scanMAX 468)

[8] = biological target: T8, ROCK1 (Homo sapiens, UniProt Q13464); experiment: KINOMEscan; type: binding; conditions: read-out: Percent Control
T8 construct: purchased Eurofins DiscoverX KINOMEscan (scanMAX 468)

[9] = biological target: T9, MmCLK1 (Mus musculus, UniProt P22518); design: method as in ref 13 (a number printed in a supplementary file, which may have a reference list of its own: not looked up in the article's list); conditions: DB18, cited from earlier work
T9 construct: host or cells: bacteria
T9 sequence (P22518 whole entry): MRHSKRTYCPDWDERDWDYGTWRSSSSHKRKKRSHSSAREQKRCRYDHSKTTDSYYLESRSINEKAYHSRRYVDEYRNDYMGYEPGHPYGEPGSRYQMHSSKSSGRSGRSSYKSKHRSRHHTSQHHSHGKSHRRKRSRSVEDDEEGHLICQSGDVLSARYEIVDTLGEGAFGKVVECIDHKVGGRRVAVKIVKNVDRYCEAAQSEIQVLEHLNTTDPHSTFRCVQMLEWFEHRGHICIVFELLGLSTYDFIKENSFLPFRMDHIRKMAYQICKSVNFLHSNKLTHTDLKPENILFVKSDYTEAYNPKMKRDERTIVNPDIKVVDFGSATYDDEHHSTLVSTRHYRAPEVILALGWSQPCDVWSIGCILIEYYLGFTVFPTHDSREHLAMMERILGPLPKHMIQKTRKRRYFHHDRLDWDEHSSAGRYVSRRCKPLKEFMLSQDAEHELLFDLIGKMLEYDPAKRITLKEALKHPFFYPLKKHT

[10] = biological target: T10, ABL1(H396P)-phosphorylated (Homo sapiens, UniProt P00519, H396P); experiment: KINOMEscan; type: binding; conditions: read-out: Percent Control
T10 construct: purchased Eurofins DiscoverX KINOMEscan (scanMAX 468)

[11] = biological target: T11, EPHA4 (Homo sapiens, UniProt P54764); experiment: KINOMEscan; type: binding; conditions: read-out: Percent Control
T11 construct: purchased Eurofins DiscoverX KINOMEscan (scanMAX 468)

[12] = biological target: T12, PIP5K2B (Homo sapiens, UniProt P78356); experiment: KINOMEscan; type: binding; conditions: read-out: Percent Control
T12 construct: purchased Eurofins DiscoverX KINOMEscan (scanMAX 468)

[13] = biological target: T13, EPHB2 (Homo sapiens, UniProt P29323); experiment: KINOMEscan; type: binding; conditions: read-out: Percent Control
T13 construct: purchased Eurofins DiscoverX KINOMEscan (scanMAX 468)

[14] = biological target: T14, ITK (Homo sapiens, UniProt Q08881); experiment: KINOMEscan; type: binding; conditions: read-out: Percent Control
T14 construct: purchased Eurofins DiscoverX KINOMEscan (scanMAX 468)

[15] = biological target: T15, NEK7 (Homo sapiens, UniProt Q8TDX7); experiment: KINOMEscan; type: binding; conditions: read-out: Percent Control
T15 construct: purchased Eurofins DiscoverX KINOMEscan (scanMAX 468)

[16] = biological target: T16, LZK (Homo sapiens, UniProt O43283); experiment: KINOMEscan; type: binding; conditions: read-out: Percent Control
T16 construct: purchased Eurofins DiscoverX KINOMEscan (scanMAX 468)

[17] = biological target: T17, SRC (Homo sapiens, UniProt P12931); experiment: KINOMEscan; type: binding; conditions: read-out: Percent Control
T17 construct: purchased Eurofins DiscoverX KINOMEscan (scanMAX 468)

[18] = biological target: T18, FGFR3 (Homo sapiens, UniProt P22607); experiment: KINOMEscan; type: binding; conditions: read-out: Percent Control
T18 construct: purchased Eurofins DiscoverX KINOMEscan (scanMAX 468)

[19] = biological target: T19, TTK (Homo sapiens, UniProt P33981); experiment: KINOMEscan; type: binding; conditions: read-out: Percent Control
T19 construct: purchased Eurofins DiscoverX KINOMEscan (scanMAX 468)

[20] = biological target: T20, DDR1 (Homo sapiens, UniProt Q08345); experiment: KINOMEscan; type: binding; conditions: read-out: Percent Control
T20 construct: purchased Eurofins DiscoverX KINOMEscan (scanMAX 468)

[21] = biological target: T21, ERK5 (Homo sapiens, UniProt Q13164); experiment: KINOMEscan; type: binding; conditions: read-out: Percent Control
T21 construct: purchased Eurofins DiscoverX KINOMEscan (scanMAX 468)

[22] = biological target: T22, MRCKB (Homo sapiens, UniProt Q9Y5S2); experiment: KINOMEscan; type: binding; conditions: read-out: Percent Control
T22 construct: purchased Eurofins DiscoverX KINOMEscan (scanMAX 468)

[23] = biological target: T23, JNK3 (Homo sapiens, UniProt P53779); experiment: KINOMEscan; type: binding; conditions: read-out: Percent Control
T23 construct: purchased Eurofins DiscoverX KINOMEscan (scanMAX 468)

[24] = biological target: T24, FES (Homo sapiens, UniProt P07332); experiment: KINOMEscan; type: binding; conditions: read-out: Percent Control
T24 construct: purchased Eurofins DiscoverX KINOMEscan (scanMAX 468)

[25] = biological target: T25, GRK1 (Homo sapiens, UniProt Q15835); experiment: KINOMEscan; type: binding; conditions: read-out: Percent Control
T25 construct: purchased Eurofins DiscoverX KINOMEscan (scanMAX 468)

[26] = biological target: T26, ABL1-phosphorylated (Homo sapiens, UniProt P00519); experiment: KINOMEscan; type: binding; conditions: read-out: Percent Control
T26 construct: purchased Eurofins DiscoverX KINOMEscan (scanMAX 468)

[27] = biological target: T27, MEK4 (Homo sapiens, UniProt P45985); experiment: KINOMEscan; type: binding; conditions: read-out: Percent Control
T27 construct: purchased Eurofins DiscoverX KINOMEscan (scanMAX 468)

[28] = biological target: T28, ABL1(F317L)-nonphosphorylated (Homo sapiens, UniProt P00519, F317L); experiment: KINOMEscan; type: binding; conditions: read-out: Percent Control
T28 construct: purchased Eurofins DiscoverX KINOMEscan (scanMAX 468)

[29] = biological target: T29, MAP4K3 (Homo sapiens, UniProt Q8IVH8); experiment: KINOMEscan; type: binding; conditions: read-out: Percent Control
T29 construct: purchased Eurofins DiscoverX KINOMEscan (scanMAX 468)

[30] = biological target: T30, PAK4 (Homo sapiens, UniProt O96013); experiment: KINOMEscan; type: binding; conditions: read-out: Percent Control
T30 construct: purchased Eurofins DiscoverX KINOMEscan (scanMAX 468)

[31] = biological target: T31, DCAMKL2 (Homo sapiens, UniProt Q8N568); experiment: KINOMEscan; type: binding; conditions: read-out: Percent Control
T31 construct: purchased Eurofins DiscoverX KINOMEscan (scanMAX 468)
T31 sequence (Q8N568 whole entry): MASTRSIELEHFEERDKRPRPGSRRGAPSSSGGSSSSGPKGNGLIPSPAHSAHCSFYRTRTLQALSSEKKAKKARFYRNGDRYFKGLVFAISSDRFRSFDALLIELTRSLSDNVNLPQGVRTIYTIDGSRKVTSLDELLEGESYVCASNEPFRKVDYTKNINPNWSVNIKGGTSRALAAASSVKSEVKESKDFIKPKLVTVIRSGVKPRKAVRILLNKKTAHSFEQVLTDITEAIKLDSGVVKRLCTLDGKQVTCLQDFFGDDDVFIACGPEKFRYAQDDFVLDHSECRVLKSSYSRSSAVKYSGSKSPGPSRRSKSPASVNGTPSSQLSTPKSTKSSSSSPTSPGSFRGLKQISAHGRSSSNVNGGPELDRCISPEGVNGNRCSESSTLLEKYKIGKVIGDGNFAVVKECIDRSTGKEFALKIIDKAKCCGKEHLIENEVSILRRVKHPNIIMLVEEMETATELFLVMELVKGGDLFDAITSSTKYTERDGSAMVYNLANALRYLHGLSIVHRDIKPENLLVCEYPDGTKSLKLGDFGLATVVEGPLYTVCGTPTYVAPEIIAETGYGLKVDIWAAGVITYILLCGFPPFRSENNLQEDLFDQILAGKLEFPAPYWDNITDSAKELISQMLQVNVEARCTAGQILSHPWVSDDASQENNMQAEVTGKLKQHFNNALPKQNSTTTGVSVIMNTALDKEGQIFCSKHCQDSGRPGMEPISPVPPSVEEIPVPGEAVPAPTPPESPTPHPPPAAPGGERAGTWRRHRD

[32] = biological target: T32, CDK3 (Homo sapiens, UniProt Q00526); experiment: KINOMEscan; type: binding; conditions: read-out: Percent Control
T32 construct: purchased Eurofins DiscoverX KINOMEscan (scanMAX 468)

[33] = biological target: T33, CAMK1B (Homo sapiens, UniProt Q6P2M8); experiment: KINOMEscan; type: binding; conditions: read-out: Percent Control
T33 construct: purchased Eurofins DiscoverX KINOMEscan (scanMAX 468)
T33 sequence (Q6P2M8 whole entry): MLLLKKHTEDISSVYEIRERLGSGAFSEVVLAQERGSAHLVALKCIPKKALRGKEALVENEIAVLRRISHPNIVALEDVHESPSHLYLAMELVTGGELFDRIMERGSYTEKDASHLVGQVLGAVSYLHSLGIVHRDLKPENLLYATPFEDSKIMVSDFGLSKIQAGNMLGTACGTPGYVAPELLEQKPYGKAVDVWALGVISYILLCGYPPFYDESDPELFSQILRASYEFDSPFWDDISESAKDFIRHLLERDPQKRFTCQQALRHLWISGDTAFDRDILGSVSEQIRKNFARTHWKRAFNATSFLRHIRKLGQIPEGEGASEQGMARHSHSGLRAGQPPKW

[34] = biological target: T34, MST2 (Homo sapiens, UniProt Q13188); experiment: KINOMEscan; type: binding; conditions: read-out: Percent Control
T34 construct: purchased Eurofins DiscoverX KINOMEscan (scanMAX 468)

[35] = biological target: T35, RET(M918T) (Homo sapiens, UniProt P07949, M918T); experiment: KINOMEscan; type: binding; conditions: read-out: Percent Control
T35 construct: purchased Eurofins DiscoverX KINOMEscan (scanMAX 468)
T35 sequence (P07949 29-1114 M918T): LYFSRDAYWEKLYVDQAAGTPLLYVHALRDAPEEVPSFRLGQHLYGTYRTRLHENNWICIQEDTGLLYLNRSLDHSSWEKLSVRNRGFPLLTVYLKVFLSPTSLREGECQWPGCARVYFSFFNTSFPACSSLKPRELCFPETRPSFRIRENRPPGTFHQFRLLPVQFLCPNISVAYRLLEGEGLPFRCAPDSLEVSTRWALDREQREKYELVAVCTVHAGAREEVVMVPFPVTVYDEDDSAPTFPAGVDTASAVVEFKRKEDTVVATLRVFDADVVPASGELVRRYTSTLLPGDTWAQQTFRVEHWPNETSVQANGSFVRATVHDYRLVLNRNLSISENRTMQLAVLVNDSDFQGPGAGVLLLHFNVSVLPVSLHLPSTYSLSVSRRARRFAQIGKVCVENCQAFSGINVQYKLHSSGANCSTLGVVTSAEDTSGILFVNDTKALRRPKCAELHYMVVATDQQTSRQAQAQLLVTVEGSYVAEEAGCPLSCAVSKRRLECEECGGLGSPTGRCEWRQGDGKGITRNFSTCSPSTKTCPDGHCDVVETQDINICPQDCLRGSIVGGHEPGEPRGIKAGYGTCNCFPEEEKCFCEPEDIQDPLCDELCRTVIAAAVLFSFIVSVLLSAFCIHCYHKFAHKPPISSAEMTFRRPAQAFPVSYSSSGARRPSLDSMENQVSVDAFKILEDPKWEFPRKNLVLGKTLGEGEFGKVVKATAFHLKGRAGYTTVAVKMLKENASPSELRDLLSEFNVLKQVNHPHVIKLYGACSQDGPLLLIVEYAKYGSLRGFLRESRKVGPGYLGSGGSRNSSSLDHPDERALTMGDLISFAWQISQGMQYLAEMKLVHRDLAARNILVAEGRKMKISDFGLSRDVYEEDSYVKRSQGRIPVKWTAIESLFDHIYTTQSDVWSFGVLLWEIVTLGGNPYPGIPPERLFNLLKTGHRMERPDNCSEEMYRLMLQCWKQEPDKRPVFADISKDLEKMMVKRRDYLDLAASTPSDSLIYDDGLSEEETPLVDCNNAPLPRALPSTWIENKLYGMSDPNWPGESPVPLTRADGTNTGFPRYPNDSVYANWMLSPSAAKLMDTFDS

[36] = biological target: T36, IRAK3 (Homo sapiens, UniProt Q9Y616); experiment: KINOMEscan; type: binding; conditions: read-out: Percent Control
T36 construct: purchased Eurofins DiscoverX KINOMEscan (scanMAX 468)

[37] = biological target: T37, PRKG2 (Homo sapiens, UniProt Q13237); experiment: KINOMEscan; type: binding; conditions: read-out: Percent Control
T37 construct: purchased Eurofins DiscoverX KINOMEscan (scanMAX 468)

[38] = biological target: T38, MAPKAPK2 (Homo sapiens, UniProt P49137); experiment: KINOMEscan; type: binding; conditions: read-out: Percent Control
T38 construct: purchased Eurofins DiscoverX KINOMEscan (scanMAX 468)

[39] = biological target: T39, ERK1 (Homo sapiens, UniProt P27361); experiment: KINOMEscan; type: binding; conditions: read-out: Percent Control
T39 construct: purchased Eurofins DiscoverX KINOMEscan (scanMAX 468)

[40] = biological target: T40, KIT(L576P) (Homo sapiens, UniProt P10721, L576P); experiment: KINOMEscan; type: binding; conditions: read-out: Percent Control
T40 construct: purchased Eurofins DiscoverX KINOMEscan (scanMAX 468)
T40 sequence (P10721 26-976 L576P): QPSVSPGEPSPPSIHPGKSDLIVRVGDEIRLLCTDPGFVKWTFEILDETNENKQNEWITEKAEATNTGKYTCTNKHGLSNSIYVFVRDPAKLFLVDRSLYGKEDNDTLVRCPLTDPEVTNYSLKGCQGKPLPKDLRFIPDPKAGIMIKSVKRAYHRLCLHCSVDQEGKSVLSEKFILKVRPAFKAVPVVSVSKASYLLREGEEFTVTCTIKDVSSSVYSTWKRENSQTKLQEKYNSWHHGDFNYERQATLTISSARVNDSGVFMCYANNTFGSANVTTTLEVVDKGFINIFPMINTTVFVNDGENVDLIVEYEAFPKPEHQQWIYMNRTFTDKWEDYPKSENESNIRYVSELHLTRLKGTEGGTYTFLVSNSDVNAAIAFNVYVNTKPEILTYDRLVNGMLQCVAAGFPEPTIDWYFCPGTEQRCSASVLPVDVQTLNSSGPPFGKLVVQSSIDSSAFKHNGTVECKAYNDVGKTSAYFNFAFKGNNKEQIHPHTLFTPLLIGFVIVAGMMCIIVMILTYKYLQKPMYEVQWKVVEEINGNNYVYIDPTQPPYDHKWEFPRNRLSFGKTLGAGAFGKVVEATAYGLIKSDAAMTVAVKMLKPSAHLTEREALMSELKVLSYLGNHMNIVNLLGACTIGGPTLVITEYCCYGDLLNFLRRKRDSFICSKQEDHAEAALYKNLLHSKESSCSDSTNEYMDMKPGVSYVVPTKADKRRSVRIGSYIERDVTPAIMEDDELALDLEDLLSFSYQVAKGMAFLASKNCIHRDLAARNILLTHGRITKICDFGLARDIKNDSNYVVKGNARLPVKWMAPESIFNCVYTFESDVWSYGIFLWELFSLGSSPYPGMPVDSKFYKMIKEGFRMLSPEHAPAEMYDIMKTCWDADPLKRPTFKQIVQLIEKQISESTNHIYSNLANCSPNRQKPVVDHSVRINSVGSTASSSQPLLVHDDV

[41] = biological target: T41, MARK4 (Homo sapiens, UniProt Q96L34); experiment: KINOMEscan; type: binding; conditions: read-out: Percent Control
T41 construct: purchased Eurofins DiscoverX KINOMEscan (scanMAX 468)

[42] = biological target: T42, PRP4 (Homo sapiens, UniProt Q13523); experiment: KINOMEscan; type: binding; conditions: read-out: Percent Control
T42 construct: purchased Eurofins DiscoverX KINOMEscan (scanMAX 468)

[43] = biological target: T43, RET (Homo sapiens, UniProt P07949); experiment: KINOMEscan; type: binding; conditions: read-out: Percent Control
T43 construct: purchased Eurofins DiscoverX KINOMEscan (scanMAX 468)
T43 sequence (P07949 29-1114): as the sequence (P07949 29-1114 M918T) above, with T890M counted along it

T1 sequence (O96017 whole entry): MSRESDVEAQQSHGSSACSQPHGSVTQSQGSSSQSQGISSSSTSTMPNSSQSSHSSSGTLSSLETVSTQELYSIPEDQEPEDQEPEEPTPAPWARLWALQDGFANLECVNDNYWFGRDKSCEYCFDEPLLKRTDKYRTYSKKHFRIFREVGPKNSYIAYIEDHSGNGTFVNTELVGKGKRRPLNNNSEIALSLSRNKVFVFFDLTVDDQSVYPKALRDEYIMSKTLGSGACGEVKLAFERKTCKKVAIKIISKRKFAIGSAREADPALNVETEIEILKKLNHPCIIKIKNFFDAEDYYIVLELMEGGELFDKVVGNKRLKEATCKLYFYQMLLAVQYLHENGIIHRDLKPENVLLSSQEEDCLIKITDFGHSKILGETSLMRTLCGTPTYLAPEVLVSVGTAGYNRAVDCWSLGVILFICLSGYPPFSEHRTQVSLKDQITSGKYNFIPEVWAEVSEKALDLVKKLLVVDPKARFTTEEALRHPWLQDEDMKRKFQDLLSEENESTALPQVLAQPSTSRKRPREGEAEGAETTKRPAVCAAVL

Compound `Cc1ccc(-n2cc(COc3cccc4cnc(Nc5cccc(Cl)c5)nc34)nn2)c([N+](=O)[O-])c1` [DB18] has a remaining binding at 1 µM [1] of 100%, a remaining binding at 1 µM [2] of 94% and a remaining binding at 1 µM [3] of 100%. For the same compound, the remaining binding at 1 µM [4] was 100%, the remaining binding at 1 µM [5] was 100% and the remaining binding at 1 µM [6] was 81%. For the same compound, the remaining binding at 1 µM [7] was 100%, the remaining binding at 1 µM [8] was 100% and the “% of residual activity Mm_CLK1” value ([9]; 1 µM) was 21%. For the same compound, the “% of residual activity Mm_CLK1” value ([9]; 10 µM) was 11%, the remaining binding at 1 µM [10] was 98% and the remaining binding at 1 µM [11] was 88%. For the same compound, the remaining binding at 1 µM [12] was 100%, the remaining binding at 1 µM [13] was 100% and the remaining binding at 1 µM [14] was 100%. For the same compound, the remaining binding at 1 µM [15] was 85%, the remaining binding at 1 µM [16] was 100% and the remaining binding at 1 µM [17] was 100%. The remaining binding at 1 µM [18] was 100%, the remaining binding at 1 µM [19] was 86% and the remaining binding at 1 µM [20] was 100%. The remaining binding at 1 µM [21] was 100%, the remaining binding at 1 µM [22] was 94% and the remaining binding at 1 µM [23] was 95%. It also gave a remaining binding at 1 µM [24] of 100%, a remaining binding at 1 µM [25] of 97% and a remaining binding at 1 µM [26] of 98%. For the same compound, the remaining binding at 1 µM [27] was 100%, the remaining binding at 1 µM [28] was 100% and the remaining binding at 1 µM [29] was 95%. The remaining binding at 1 µM [30] was 100%, the remaining binding at 1 µM [31] was 100% and the remaining binding at 1 µM [32] was 100%. For the same compound, the remaining binding at 1 µM [33] was 86%, the remaining binding at 1 µM [34] was 100% and the remaining binding at 1 µM [35] was 100%. For the same compound, the remaining binding at 1 µM [36] was 59%, the remaining binding at 1 µM [37] was 100% and the remaining binding at 1 µM [38] was 100%. It also gave a remaining binding at 1 µM [39] of 100%, a remaining binding at 1 µM [40] of 100% and a remaining binding at 1 µM [41] of 100%. For the same compound, the remaining binding at 1 µM [42] was 100% and the remaining binding at 1 µM [43] was 92%.
